Results from ChEMBL document CHEMBL5291721, “A preclinical secondary pharmacology resource illuminates target-adverse drug reaction associations of marketed drugs” (Nat Commun, 2023).

Tests used:
[1] = molecular target: T1, Retinoic acid receptor gamma (Homo sapiens, UniProt P13631); type: functional, cell-based
T1 sequence (P13631 whole entry): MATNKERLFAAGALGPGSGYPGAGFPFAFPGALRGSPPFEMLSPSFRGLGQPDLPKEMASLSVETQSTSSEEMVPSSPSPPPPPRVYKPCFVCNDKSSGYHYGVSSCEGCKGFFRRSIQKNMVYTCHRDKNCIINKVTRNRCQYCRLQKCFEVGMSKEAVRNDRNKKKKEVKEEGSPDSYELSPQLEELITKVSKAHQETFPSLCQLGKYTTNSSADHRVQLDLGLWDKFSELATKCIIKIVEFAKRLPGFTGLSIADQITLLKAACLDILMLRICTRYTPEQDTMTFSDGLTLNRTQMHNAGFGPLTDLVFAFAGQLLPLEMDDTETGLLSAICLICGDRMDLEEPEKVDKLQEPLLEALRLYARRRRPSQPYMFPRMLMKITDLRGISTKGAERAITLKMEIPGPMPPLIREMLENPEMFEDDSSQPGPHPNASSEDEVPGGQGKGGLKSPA

[2] = molecular target: T2, Oxysterols receptor LXR-beta (Homo sapiens, UniProt P55055); type: functional
T2 sequence (P55055 whole entry): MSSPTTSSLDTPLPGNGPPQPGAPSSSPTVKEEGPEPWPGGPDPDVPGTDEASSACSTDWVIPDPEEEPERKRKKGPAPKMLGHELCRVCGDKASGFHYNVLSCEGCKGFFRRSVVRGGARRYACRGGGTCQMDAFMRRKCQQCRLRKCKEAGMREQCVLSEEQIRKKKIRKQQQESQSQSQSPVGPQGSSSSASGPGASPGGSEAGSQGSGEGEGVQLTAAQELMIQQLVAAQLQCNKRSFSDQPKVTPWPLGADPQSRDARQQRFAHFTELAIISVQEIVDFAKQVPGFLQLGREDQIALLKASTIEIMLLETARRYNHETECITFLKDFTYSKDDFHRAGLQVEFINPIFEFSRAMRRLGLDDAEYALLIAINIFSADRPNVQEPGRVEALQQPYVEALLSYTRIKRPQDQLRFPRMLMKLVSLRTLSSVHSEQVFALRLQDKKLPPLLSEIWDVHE

[3] = molecular target: T3, Retinoic acid receptor beta (Homo sapiens, UniProt P10826); type: functional, cell-based
T3 sequence (P10826 whole entry): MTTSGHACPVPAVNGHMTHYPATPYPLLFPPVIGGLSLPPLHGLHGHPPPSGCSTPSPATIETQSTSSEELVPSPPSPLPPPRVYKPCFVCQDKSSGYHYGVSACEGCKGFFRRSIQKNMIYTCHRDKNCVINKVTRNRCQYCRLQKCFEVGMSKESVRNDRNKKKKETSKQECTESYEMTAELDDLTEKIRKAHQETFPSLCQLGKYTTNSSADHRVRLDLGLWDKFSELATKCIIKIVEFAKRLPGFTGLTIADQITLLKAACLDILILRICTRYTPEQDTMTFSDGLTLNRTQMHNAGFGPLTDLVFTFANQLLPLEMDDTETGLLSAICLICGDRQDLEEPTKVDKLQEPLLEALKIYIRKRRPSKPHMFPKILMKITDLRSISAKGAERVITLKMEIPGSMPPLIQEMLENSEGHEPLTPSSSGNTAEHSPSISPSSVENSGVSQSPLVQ

[4] = molecular target: T4, Retinoic acid receptor alpha (Homo sapiens, UniProt P10276); type: functional, cell-based
T4 sequence (P10276 whole entry): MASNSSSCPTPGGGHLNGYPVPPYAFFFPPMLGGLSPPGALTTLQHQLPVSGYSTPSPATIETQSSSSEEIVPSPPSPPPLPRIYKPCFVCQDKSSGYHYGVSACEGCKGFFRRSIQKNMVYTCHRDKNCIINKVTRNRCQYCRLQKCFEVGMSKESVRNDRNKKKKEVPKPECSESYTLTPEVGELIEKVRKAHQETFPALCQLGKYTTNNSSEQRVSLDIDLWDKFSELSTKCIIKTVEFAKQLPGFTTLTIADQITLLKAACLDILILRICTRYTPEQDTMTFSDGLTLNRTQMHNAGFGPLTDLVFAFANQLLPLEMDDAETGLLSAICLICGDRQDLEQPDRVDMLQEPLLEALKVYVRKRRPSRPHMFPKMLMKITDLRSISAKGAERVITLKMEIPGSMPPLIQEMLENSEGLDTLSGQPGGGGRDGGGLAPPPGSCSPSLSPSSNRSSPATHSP

Bile acid receptor = molecular target: T5, Bile acid receptor (Homo sapiens, UniProt Q96RI1); type: functional
T5 sequence (Q96RI1 whole entry): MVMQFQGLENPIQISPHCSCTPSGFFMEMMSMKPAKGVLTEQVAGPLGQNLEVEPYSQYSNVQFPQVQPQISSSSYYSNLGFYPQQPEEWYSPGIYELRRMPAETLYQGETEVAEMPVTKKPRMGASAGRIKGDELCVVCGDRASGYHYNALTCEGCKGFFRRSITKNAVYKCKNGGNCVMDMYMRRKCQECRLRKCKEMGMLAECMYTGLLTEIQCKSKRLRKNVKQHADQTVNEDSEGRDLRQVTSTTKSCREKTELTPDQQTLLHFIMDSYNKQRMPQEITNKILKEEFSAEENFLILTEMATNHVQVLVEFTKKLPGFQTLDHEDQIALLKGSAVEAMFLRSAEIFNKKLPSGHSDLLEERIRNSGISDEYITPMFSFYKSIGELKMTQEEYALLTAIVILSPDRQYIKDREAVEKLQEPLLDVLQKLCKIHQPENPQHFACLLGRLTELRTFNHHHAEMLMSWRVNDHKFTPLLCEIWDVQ

[5] = molecular target: T1, Retinoic acid receptor gamma; type: functional, cell-based; remark: listed apart in the source
D(1B) dopamine receptor = D(1B) dopamine receptor (Homo sapiens, UniProt P21918)
Sequence of D(1B) dopamine receptor (P21918 whole entry): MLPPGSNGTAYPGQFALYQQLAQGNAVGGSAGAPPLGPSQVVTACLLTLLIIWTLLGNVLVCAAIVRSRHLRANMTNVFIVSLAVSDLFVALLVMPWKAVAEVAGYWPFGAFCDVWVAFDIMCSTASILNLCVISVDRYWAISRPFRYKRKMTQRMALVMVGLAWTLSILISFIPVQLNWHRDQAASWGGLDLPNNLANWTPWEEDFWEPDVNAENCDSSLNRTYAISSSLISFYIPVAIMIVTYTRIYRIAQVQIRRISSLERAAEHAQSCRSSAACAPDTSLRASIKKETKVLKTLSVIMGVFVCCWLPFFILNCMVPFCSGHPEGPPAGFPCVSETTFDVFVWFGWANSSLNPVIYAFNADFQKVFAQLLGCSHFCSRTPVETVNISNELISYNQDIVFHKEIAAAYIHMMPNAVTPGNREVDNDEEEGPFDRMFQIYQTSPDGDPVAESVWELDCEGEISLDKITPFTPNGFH

[6] = molecular target: T6, Muscarinic acetylcholine receptor M4 (Homo sapiens, UniProt P08173)
T6 sequence (P08173 whole entry): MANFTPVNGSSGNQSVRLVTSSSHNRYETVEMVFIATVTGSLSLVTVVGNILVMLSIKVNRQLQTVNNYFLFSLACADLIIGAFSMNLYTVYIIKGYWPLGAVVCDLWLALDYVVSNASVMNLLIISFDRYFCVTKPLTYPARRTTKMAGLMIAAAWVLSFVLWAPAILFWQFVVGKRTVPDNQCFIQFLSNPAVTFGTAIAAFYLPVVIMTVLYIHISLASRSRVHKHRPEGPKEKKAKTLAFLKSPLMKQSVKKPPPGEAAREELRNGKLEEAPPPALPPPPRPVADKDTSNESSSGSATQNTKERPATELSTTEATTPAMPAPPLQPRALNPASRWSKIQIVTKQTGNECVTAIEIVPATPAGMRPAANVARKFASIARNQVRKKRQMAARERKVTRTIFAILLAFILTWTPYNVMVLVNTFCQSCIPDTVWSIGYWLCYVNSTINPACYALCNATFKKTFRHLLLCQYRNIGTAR
Also: assay procedure not described here.

| SMILES | AC50 [1] [µM] | AC50 [2] [µM] | AC50 [3] [µM] | AC50 [4] [µM] | AC50 (Bile acid receptor) [µM] | AC50 [5] [µM] | AC50 (D(1B) dopamine receptor) [µM] | AC50 [6] [µM] |
| --- | --- | --- | --- | --- | --- | --- | --- | --- |
| CC(C)/N=c1\cc2n(-c3ccc(Cl)cc3)c3ccccc3nc-2cc1Nc1ccc(Cl)cc1 [CLOFAZIMINE] | > 30 | > 30 | > 30 | > 30 | > 30 | > 30 |  |  |
| CCOC(=O)[C@H](CCc1ccccc1)N[C@@H](C)C(=O)N1Cc2ccccc2C[C@H]1C(=O)O |  |  |  |  |  |  | > 10 | > 10 |
